According to US10781215B2, “Heterobicyclic compounds useful as modulators of IL-12, IL-23 and/or IFNα responses” (BRISTOL-MYERS SQUIBB COMPANY, priority 2016, dated 2020):

Tests used:
[1] = tested on: IL-23 stimulated Kit225 T cells (STAT-dependent luciferase reporter); assay: Kit225 T cell assay, IL-23 stimulated STAT-dependent luciferase reporter; format: cell-based; conditions: 20 ng/mL human recombinant IL-23, 5-6 hours
Method: (§1) Kit225 T cells with a stably-integrated STAT-dependent luciferase reporter were plated in RPMI (Gibco) containing 10% heat-inactivated FBS (Gibco) and 100 U/mL PenStrep (Gibco). The cells were then stimulated with either 20 ng/mL human recombinant IL-23 or 200 U/mL human recombinant IFNα (PBL InterferonSource) for 5-6 hours. Luciferase expression was measured using the STEADY-GLO® Luciferase Assay System (Promega) according to the manufacturer's instructions. Inhibition data were calculated by comparison to no inhibitor control wells for 0% inhibition and non-stimulated control wells for 100% inhibition. Dose response curves were generated to determine the concentration required to inhibit 50% of cellular response (IC50) as derived by non-linear regression analysis.

[2] = biological target: T1, human Tyk2 (amino acids 575-869, His-tagged) (Homo sapiens, UniProt P29597); assay: Probe displacement assay (SPA format); format: binding; conditions: radiolabeled probe 40 nM, Tyk2 2.5 nM
T1 construct: made in house
Method: Probe Displacement Assay (SPA Format) The probe displacement assay is conducted as follows: In a […], test compounds along with recombinantly expressed His-tagged protein corresponding to amino acids 575-869 of human Tyk2 (sequence shown below) at 2.5 nM, 40 nM ((R)—N-(1-(3-(8-methyl-5-(methylamino)-8H-imidazo [4,5-d]thiazolo [5,4-b]pyridin-2-yl)phenyl)ethyl)-2-([^3H]methylsulfonyl)benzamide) (preparation described below) and 80 μg/mL Copper His-Tag scintillation proximity assay beads (Perkin Elmer, Catalog # RPNQ0095) in 50 mM HEPES, pH 7.5, containing 100 μg/mL bovine serum albumin and 5% DMSO were incubated for 30 minutes at room temperature. The amount of radiolabeled probe (preparation described below) bound to Tyk2 was then quantified by scintillation counting, and the inhibition by the test compound calculated by comparison to wells either with no inhibitor (0% inhibition) or without Tyk2 (100% inhibition). The EC50 value is defined as the concentration of test compound required to inhibit radiolabeled probe binding by 50%. Probe Displacement Assay (HTRF Format)

[3] = tested on: IFNα stimulated Kit225 T cells (STAT-dependent luciferase reporter); assay: Kit225 T cell assay, IFNα stimulated STAT-dependent luciferase reporter; format: cell-based; conditions: 200 U/mL human recombinant IFNα, 5-6 hours
Method: as §1

[4] = biological target: T2, recombinant human His-tagged Tyk2 pseudokinase domain (His-TVMV-Tyk2, 575-869) (Homo sapiens, UniProt P29597); assay: Probe displacement assay (HTRF format); format: binding; conditions: fluorescein labeled probe, Tyk2 pseudokinase domain 0.5 nM
T2 construct: made in house
Method: To 10 μL 26 nM fluorescein labeled probe plus 0.2 nM anti-6×His-terbium labeled antibody (Medarex, labeled by Cisbio) in assay buffer (20 mM Hepes pH 7.5, 150 mM NaCl, 10 mM MgCl2, 2 mM DTT, 50 μg/mL BSA, and 0.015% Brij 35) was added 10 μL recombinant human His-tagged Tyk2 pseudokinase domain (His-TVMV-Tyk2, 575-869) to a final concentration of 0.5 nM. After 1 h at room temperature, the HTRF signal (ratio of fluorescence intensities at emission wavelengths for fluorescein acceptor at 520 nm and terbium donor at 495 nm) was measured on an Envision Plate Reader. Percent inhibition was calculated by comparison to a control without inhibitor and a control without protein. Dose response curves were generated to determine the concentration required for inhibiting 50% of the HTRF signal (EC50).

T2 sequence (P29597 with tags, fused parts or gaps): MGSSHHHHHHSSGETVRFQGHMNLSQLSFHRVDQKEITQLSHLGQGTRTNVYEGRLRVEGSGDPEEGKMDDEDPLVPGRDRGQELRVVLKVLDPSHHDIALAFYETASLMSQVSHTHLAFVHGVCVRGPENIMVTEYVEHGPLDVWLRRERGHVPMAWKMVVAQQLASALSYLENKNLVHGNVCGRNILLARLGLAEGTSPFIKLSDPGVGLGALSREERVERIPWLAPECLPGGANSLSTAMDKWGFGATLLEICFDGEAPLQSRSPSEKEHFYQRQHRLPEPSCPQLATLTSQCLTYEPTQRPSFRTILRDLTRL
T1 sequence (P29597 with tags, fused parts or gaps): as above

Structure (SMILES)	IC50 [1] [nM]	EC50 [2] [nM]	IC50 [3] [nM]	EC50 [4] [nM]
Cc1nc2c(Nc3ccccc3S(C)(=O)=O)cc(Nc3ccc(N4CCCC4=O)cn3)nc2[nH]1 [Example 24, 1-[6-({7-[(2-methanesulfonylphenyl)amino]-2-methyl-3H-imidazo[4,5-b]pyridin-5-yl}amino)pyridin-3-yl]pyrrolidin-2-one]	1230	15	636	
Cc1nc2c(Nc3ccccc3S(C)(=O)=O)cc(Nc3cc(C)c(C#N)c(C)n3)nc2[nH]1 [Example 28, 6-({7-[(2-methanesulfonylphenyl)amino]-2-methyl-3H-imidazo[4,5-b]pyridin-5-yl}amino)-2,4-dimethylpyridine-3-carbonitrile]	70	9	53	
Cc1nc2c(Nc3ccccc3S(C)(=O)=O)cc(Nc3ccn(C(C)C)n3)nc2[nH]1 [Example 30, 7-N-(2-methanesulfonylphenyl)-2-methyl-5-N-[1-(propan-2-yl)-1H-pyrazol-3-yl]-3H-imidazo[4,5-b]pyridine-5,7-diamine]	579	58	503	
COc1ccccc1Nc1cc(Nc2cc(C)nc(C)n2)nc2[nH]c(C)nc12 [Example 36, 5-N-(2,6-dimethylpyrimidin-4-yl)-7-N-(2-methoxyphenyl)-2-methyl-3H-imidazo[4,5-b]pyridine-5,7-diamine]	824	291	1520	
COc1c(Nc2cc(NC(=O)C3CC3)nc3[nH]c(C)nc23)cccc1-c1ncn(C)n1 [Example 39, N-(7-{[2-methoxy-3-(1-methyl-1H-1,2,4-triazol-3-yl)phenyl]amino}-2-methyl-3H-imidazo[4,5-b]pyridin-5-yl)cyclopropanecarboxamide]	3010	17	2720	
COc1c(Nc2cc(Nc3ccc(F)cn3)nc3[nH]c(C)nc23)cccc1-c1ncn(C)n1 [Example 40, 5-N-(5-fluoropyridin-2-yl)-7-N-[2-methoxy-3-(1-methyl-1H-1,2,4-triazol-3-yl)phenyl]-2-methyl-3H-imidazo[4,5-b]pyridine-5,7-diamine]	738	38	1240	
COc1ccc(Nc2cc(Nc3ncccc3S(C)(=O)=O)c3nc(C)[nH]c3n2)nn1 [Example 45, 7-N-(3-methanesulfonylpyridin-2-yl)-5-N-(6-methoxypyridazin-3-yl)-2-methyl-3H-imidazo[4,5-b]pyridine-5,7-diamine]	462		288	1.2
Cc1ccnc(Nc2cc(Nc3ncccc3S(C)(=O)=O)c3nc(C)[nH]c3n2)c1 [Example 46, 7-N-(3-methanesulfonylpyridin-2-yl)-2-methyl-5-N-(4-methylpyridin-2-yl)-3H-imidazo[4,5-b]pyridine-5,7-diamine]	2980		323	1.8
Cc1nc2c(Nc3ncccc3S(C)(=O)=O)cc(NC(=O)C3CC3)nc2[nH]1 [Example 47, N-{7-[(3-methanesulfonylpyridin-2-yl)amino]-2-methyl-3H-imidazo[4,5-b]pyridin-5-yl}cyclopropanecarboxamide]	698		403	0.4
CCc1nc2c(Nc3ccccc3S(C)(=O)=O)cc(Nc3ccc(F)cn3)nc2[nH]1 [Example 51, 2-ethyl-5-N-(5-fluoropyridin-2-yl)-7-N-(2-methanesulfonylphenyl)-3H-imidazo[4,5-b]pyridine-5,7-diamine]	1470	158	1420	

The remaining compounds from weak to strong by IC50 [1], led by results:

IC50 [1] [nM]	EC50 [2] [nM]	IC50 [3] [nM]	EC50 [4] [nM]	Structure (SMILES)
8070	509	5180		COc1ccccc1Nc1cc(Nc2ccc(F)cn2)nc2[nH]c(C)nc12 [Example 38, 5-N-(5-fluoropyridin-2-yl)-7-N-(2-methoxyphenyl)-2-methyl-3H-imidazo[4,5-b]pyridine-5,7-diamine]
3880	432	1040		COc1ccccc1Nc1cc(Nc2ccc(N3CCOCC3)cn2)nc2[nH]c(C)nc12 [Example 37, 7-N-(2-methoxyphenyl)-2-methyl-5-N-[5-(morpholin-4-yl)pyridin-2-yl]-3H-imidazo[4,5-b]pyridine-5,7-diamine]
3310	167	1160		Cc1nc2c(Nc3ccccc3C(N)=O)cc(Nc3ccc(F)cn3)nc2[nH]1 [Example 32, 2-({5-[(5-fluoropyridin-2-yl)amino]-2-methyl-3H-imidazo[4,5-b]pyridin-7-yl}amino)benzamide]
3140	814	5130		COc1ccccc1Nc1cc(NC(=O)C2CC2)nc2[nH]c(C)nc12 [Example 35, N-{7-[(2-methoxyphenyl)amino]-2-methyl-3H-imidazo[4,5-b]pyridin-5-yl}cyclopropanecarboxamide]
1410	107	4260		CCc1nc2c(Nc3ccccc3S(C)(=O)=O)cc(Nc3cc(C)nc(C)n3)nc2[nH]1 [Example 52, 5-N-(2,6-dimethylpyrimidin-4-yl)-2-ethyl-7-N-(2-methanesulfonylphenyl)-3H-imidazo[4,5-b]pyridine-5,7-diamine]
327	4	123		Cc1nc2c(Nc3ccccc3S(C)(=O)=O)cc(Nc3ccn4nccc4n3)nc2[nH]1 [Example 27, 7-N-(2-methanesulfonylphenyl)-2-methyl-5-N-{pyrazolo[1,5-a]pyrimidin-5-yl}-3H-imidazo[4,5-b]pyridine-5,7-diamine]
235	12	105		Cc1nc2c(Nc3ccccc3S(C)(=O)=O)cc(Nc3cc(C)c(F)cn3)nc2[nH]1 [Example 31, 5-N-(5-fluoro-4-methylpyridin-2-yl)-7-N-(2-methanesulfonylphenyl)-2-methyl-3H-imidazo[4,5-b]pyridine-5,7-diamine]
205	7	126		Cc1nc2c(Nc3ccccc3S(C)(=O)=O)cc(Nc3ccc(C#N)c(C)n3)nc2[nH]1 [Example 25, 6-({7-[(2-methanesulfonylphenyl)amino]-2-methyl-3H-imidazo[4,5-b]pyridin-5-yl}amino)-2-methylpyridine-3-carbonitrile]
140	15	119		Cc1nc2c(Nc3ccccc3S(C)(=O)=O)cc(Nc3cc(C)n(C)n3)nc2[nH]1 [Example 26, 5-N-(1,5-dimethyl-1H-pyrazol-3-yl)-7-N-(2-methanesulfonylphenyl)-2-methyl-3H-imidazo[4,5-b]pyridine-5,7-diamine]
75		67	0.6	COc1ccc(Nc2cc(Nc3ncccc3S(C)(=O)=O)c3nc(C)[nH]c3n2)nc1 [Example 42, 7-N-(3-methanesulfonylpyridin-2-yl)-5-N-(5-methoxypyridin-2-yl)-2-methyl-3H-imidazo[4,5-b]pyridine-5,7-diamine]
53		45	0.8	Cc1nc2c(Nc3ncccc3S(C)(=O)=O)cc(Nc3cc(F)ccn3)nc2[nH]1 [Example 43, 5-N-(4-fluoropyridin-2-yl)-7-N-(3-methanesulfonylpyridin-2-yl)-2-methyl-3H-imidazo[4,5-b]pyridine-5,7-diamine]
28		68	0.4	Cc1nc2c(Nc3ncccc3S(C)(=O)=O)cc(Nc3ccc(F)cn3)nc2[nH]1 [Example 41, 5-N-(5-fluoropyridin-2-yl)-7-N-(3-methanesulfonylpyridin-2-yl)-2-methyl-3H-imidazo[4,5-b]pyridine-5,7-diamine]
21	6	35		Cc1cccc(Nc2cc(Nc3ccccc3S(C)(=O)=O)c3nc(C)[nH]c3n2)n1 [Example 29, 7-N-(2-methanesulfonylphenyl)-2-methyl-5-N-(6-methylpyridin-2-yl)-3H-imidazo[4,5-b]pyridine-5,7-diamine]
